The text below walks through data of US3954764A, “Dibenzo [b,f]thiepins bearing piperazinyl substitution” (priority 1973, dated 1976).

Entries after “also recorded” stand apart in the source; their conditions may differ. Read-outs that look alike come from different tables or passages of the source.

As usually defined, the ED50 is the midpoint of the dose-response relation. One may read the LD50 as the dose at which mortality reaches 50%.

Data set [1] deals with homovanillinic acid (turnover of dopamine in the basal ganglions). Description: Determination of Homovanillinic Acid. Type of data set: in vivo, rat. As to conditions: rats; for Increase in HVA, percent: 2 hours before killing, untreated = 100 percent. The method, then:
Two hours prior to being killed, rats are injected with the test substance.
Thereafter, the homovanillinic acid is extracted from the supernatant portion of a homogenized mixture of the brains of the treated rats into butyl acetate and later into an aqueous solution and is oxidized with potassium ferric cyanide to a fluorescent dimer. […] The homovanillinic acid titer in untreated rats is arbitrarily set at 100 percent.

Data set [2] is described as follows: Catalepsy test (i.p., rats; number of cataleptic animals recorded every 30 minutes over 6 hours). Type of data set: in vivo, rat. As to conditions: rat, in vivo, ip. The method, then:
(§1) The following compounds were tested:
(§2) The foregoing compounds were compared to chlorpromazine, a well-known central depressant, especially well known as a neuroleptic agent.
(§3) The test animals are considered to be cataleptic when the homolateral extremities remain in the crossed position for at least 10 seconds. The number of cataleptic animals is recorded every 30 minutes over a 6-hour period. The ED50 is the dose at which 50 percent of the animals are cataleptic.

The subject of data set [3] is rats. Described as above. The format is in vivo, rat. Here is the method:
as §1, §2, §3

The next data set deals with mice. Put plainly: Rotating Rod Test. As to conditions: for ED50: Mus musculus, po, read-out: ED50 (dose which reduces the holding on period by 50 percent); for Rotating Rod Test activity in words: compared with chlorpromazine. The format is in vivo, mouse. Here is the method:
In the Rotating Rod Test, the ability of mice to achieve a coordinated motor performance is investigated. After peroral administration of the test substance, the mice are placed upon a horizontal slowly rotating rod and the time they remain on the rod is recorded. The ED50 is that dose which reduces the holding on period of the mice by 50 percent as compared to the holding on period prior to the administration of the test substance.

The nature of data set [4]: Acute toxicity in the mouse. Conditions: in vivo, po.
Another data set in a line: "Pole Climbing" Test. The format is in vivo, rat. Conditions: rat, in vivo, po; rats, p.o.; higher quotient = greater selectivity of neuroleptic action; read-out: Quotient ED10 (blocking of the unconditioned reaction) / ED50 (blocking of the conditioned reaction). Here is the method:
(§4) This test provides information about behavioral reactions of rats. Rats are trained to avoid, by climbing up a vertical pole in the test chamber, an electrical impulse (unconditioned impulse) released via the wire-latticed floor some seconds after an acoustic signal (conditioned impulse).
(§5) The blocking of the conditioned reaction is determined by the parameter ED50 (mg/kg p.o.); the blocking of the unconditioned reaction is determined by a parameter ED10 (mg/kg. p.o.).
(§6) The parameter ED50 (blocking of the conditioned reaction) gives a measure of the neuroleptic strength of action of the test substance. The quotient ED10 (blocking of the unconditioned reaction)/ED50 (blocking of the conditioned reaction) gives a measure of the quality of action of the test substance since, with increasing quotient, a greater selectivity of the neuroleptic action (slighter neurotoxic side-effect) is present.

Data set [5] relates to rats. Put plainly: "Pole Climbing" Test. Conditions: for ED50: Rattus norvegicus, po, read-out: ED50 (blocking of the conditioned reaction); for neuroleptic action in words / quality (selectivity) of the neuroleptic action in words: compared with chlorpromazine. The format is in vivo, rat. Here is the method: as §4, §5, §6
[6] abbreviates: rats, intraperitoneal, 6-hour period, read-out: ED50 (dose at which 50 percent of the animals are cataleptic).

With `O=C(O)/C=C\C(=O)O.O=C1OCCN1CCN1CCN(C2Cc3cc(Cl)ccc3Sc3ccc(F)cc32)CC1` (stereo not drawn) [Product D, 3-{2-[4-(2-chloro-8-fluoro-10,11-dihydrodibenzo[b,f]thiepin-10-yl)-1-piperazinyl]-ethyl}-2-oxazolidinone maleate], the “HVA test activity in words” value in data set [1] is recorded as “nearly as potent as that of chlorpromazine”. Moreover, the “Increase in HVA, percent” value in data set [1] (45 mg/kg p.o.) is recorded as 300%. Further, in data set [2] (setting [6]), the TD50 at 6 h is 45 mg/kg. Further, in the data set on rats [3] (as compared to chlorpromazine), the “cataleptic activity in words” value was “considerably lower cataleptic activity”. For the same molecule, the ED50 with mice (mice, peroral) worked out at 1 mg/kg; in the data set with rats [5], 17 mg/kg. Moreover, in the data set with mice (mice, peroral, maleate), the “Rotating Rod Test activity in words” value is “strong activity; also recorded: superior to that of chlorpromazine”. Moreover, in data set [4], the LD50 at 24 h turned out to be 450 mg/kg. In addition, the selectivity ratio in “"Pole Climbing" Test” was 7.6. Moreover, the “neuroleptic action in words” value with rats [5] (rats) is recorded as “lies somewhat below that of chlorpromazine”. Also, in the data set on rats [5] (rats), the “quality (selectivity) of the neuroleptic action in words” value (shortened to “quality (selectivity)”) is recorded as “substantially exceeds that of chlorpromazine”.
On to `CN(C)CCCN1c2ccccc2Sc2ccc(Cl)cc21` [Chlorpromazine, reference compound], for which, in data set [1] (20 mg/kg p.o.), the “Increase in HVA, percent” value turned out to be 321%. In data set [2] (setting [6]), the TD50 at 6 h was found to be 6 mg/kg. Also, the “cataleptic activity in words” value in the data set with rats [3] (rat, in vivo) is recorded as “does demonstrate cataleptic effect”. The ED50 with mice came out at 5 mg/kg; in the data set with rats [5] (rats, p.o.), 11.8 mg/kg. Moreover, the median lethal dose (LD50) at 24 h in data set [4] is 200 mg/kg. In addition, the selectivity ratio in the data set “"Pole Climbing" Test” worked out at 2.5.
In the case of `CSc1ccc2c(c1)C(N1CCN(CCN3CCOC3=O)CC1)Cc1cc(C)ccc1S2.O=C(O)/C=C\C(=O)O` (stereo not drawn) [Product E, 3-{2-[4-(10,11-dihydro-2-methyl-8-methylthiodibenzo[b,f]thiepin-10-yl)-1-piperazinyl]-ethyl}-2-oxazolidinone maleate], the “Increase in HVA, percent” value in data set [1] (50 mg/kg p.o.) is recorded as 255%. In addition, the TD50 at 6 h in data set [2] (setting [6]) was 45 mg/kg. Besides, the “cataleptic activity in words” value in the data set on rats [3] (as compared to chlorpromazine) is reported as “considerably lower cataleptic activity”. In data set [4], this molecule displayed an LD50 at 24 h of 3750 mg/kg. Further, the selectivity ratio in “"Pole Climbing" Test” was 12. The median effective dose (ED50) in the data set on rats [5] came out at 25 mg/kg. Moreover, in the data set on rats [5] (rats), the “neuroleptic action in words” value is recorded as “lies somewhat below that of chlorpromazine” and the “quality (selectivity)” value is reported as “substantially exceeds that of chlorpromazine”.
With `O=C(O)/C=C\C(=O)O.O=C1OCCN1CCN1CCN(C2Cc3cc(Cl)ccc3Sc3cc(F)ccc32)CC1` (stereo not drawn) [Product B, 3-{2-[4-(2-chloro-7-fluoro-10,11-dihydrodibenzo[b,f]thiepin-10-yl)-1-piperazinyl]-ethyl}-2-oxazolidinone maleate], the “HVA test activity in words” value in data set [1] is “nearly as potent as that of chlorpromazine”. Also, the “Increase in HVA, percent” value in data set [1] (50 mg/kg p.o.) is reported as 270%. In data set [2] (setting [6]), the TD50 at 6 h is over 100 mg/kg. Also, the “cataleptic activity in words” value in the data set on rats [3] (as compared to chlorpromazine) is reported as “no cataleptic effect”. In data set [4], the median lethal dose (LD50) at 24 h came to 900 mg/kg.
On to `Cc1ccc2c(c1)CC(N1CCN(CCN3CCCC3=O)CC1)c1cc(Cl)ccc1S2.O=C(O)/C=C\C(=O)O` (stereo not drawn) [Product A, 1-{2-[4-(8-chloro-10,11-dihydro-2-methyl-dibenzo[b,f]thiepin-10-yl)-1-piperazinyl]-ethyl}-2-pyrrolidinone maleate], for which the “HVA test activity in words” value in data set [1] is given as “nearly as potent as that of chlorpromazine”. Moreover, the “Increase in HVA, percent” value in data set [1] (50 mg/kg p.o.) was found to be 295%. In data set [2] (setting [6]), the TD50 at 6 h is over 100 mg/kg. The “cataleptic activity in words” value in the data set on rats [3] (as compared to chlorpromazine) is “no cataleptic effect”. The ED50 in the data set on mice (mice, peroral) is 7.3 mg/kg. The “Rotating Rod Test activity in words” value in the data set on mice (mice, peroral, maleate) was “strong activity; also recorded: approximates that of chlorpromazine”. This molecule also showed an LD50 at 24 h in data set [4] of 3750 mg/kg.
Regarding `Cc1ccc2c(c1)CC(N1CCN(CCN3CCOC3=O)CC1)c1cc(F)ccc1S2` (stereo not drawn) [Product C, 3-{2-[4-(8-fluoro-10,11-dihydro-2-methyl-dibenzo[b,f]thiepin-10-yl)-1-piperazinyl]-ethyl}-2-oxazolidinone], in data set [1] (50 mg/kg p.o.), the “Increase in HVA, percent” value is 235%. The molecule also gave a TD50 at 6 h in data set [2] of 75 mg/kg. For the same molecule, the “cataleptic activity in words” value in the data set on rats [3] (as compared to chlorpromazine) is reported as “very weak cataleptic activity”. In the data set with mice (mice, peroral), the ED50 was 2.1 mg/kg and the “Rotating Rod Test activity in words” value was “strong activity; also recorded: superior to that of chlorpromazine”. Moreover, in data set [4], the 50% lethal dose (LD50) at 24 h was 1880 mg/kg. Also, the selectivity ratio in the data set “"Pole Climbing" Test” was determined as 23. Moreover, the ED50 with rats [5] (rats, p.o.) was 14 mg/kg. In the data set on rats [5] (rats), the “neuroleptic action in words” value is given as “lies somewhat below that of chlorpromazine” and the “quality (selectivity)” value is “substantially exceeds that of chlorpromazine”.
